# Measurements from patent US20040068014A1 (priority 2001, published 2004).
# Tests used:
# [1] = test system: diarrhea; test: Inducing effect of diarrhea (rats, oral administration)
# [2] = test system: Diclofenac sodium-induced stomach ulcer; test: Administering time of Ornoprostil and suppression of Diclofenac sodium-induced stomach ulcer; format: in vivo, rat; settings: for Antiulcer coefficient: inhibition ratio/incidence rate; for Incidence rate of ulcer (Number of Examples): rat oral
# [3] = test system: glycerol-induced nephropathy; test: Glycerol-induced nephropathy; format: in vivo, rat; settings: serum 48 hours after glycerol
# Procedure: After weighing SPF/Crj strain maleness rats (9 weeks of ages), they were so divided that average weight of each group might almost be equal. At 48 hours after 50% glycerol (10 ml/kg) (medium: physiological salt solution) was subcutaneously administered to rats deprived water for 48 hours (±2 hour) on […], about 1.5 ml of blood was gathered from the jugular under ether anesthesia. […] Water was supplied to them 2 hour later from administration of glycerol. Those serums were obtained by centrifugal separation (for about 4° C., 3000 rpm, for 15 minutes) of the gathered blood. Urea nitrogen (abbreviated as UN.) (urease·GIDH method) and creatinine (abbreviated as CRE.) (Creatininase·F-DAOS method) in the obtained serum were measured with the biochemistry automated analyzer (AU400 (trade name), Olympus Optical Co., Ltd.).
# [4] = OU 0 minutes before Di administering
# [5] = OU 5 minutes after Di administering
# [6] = OU 5 minutes before Di administering
# [7] = OU 10 minutes after Di administering
# [8] = OU 10 minutes before Di administering
# [9] = OU 30 minutes after Di administering
# [10] = OU 30 minutes before Di administering
# [11] = OU 60 minutes after Di administering
# [12] = OU 60 minutes before Di administering
# [13] = GC (subcutis) + OU (10 μg) oral
compound,measurement,setting,value
15-deoxy-16-hydroxy-16-methyl-PGE1 methyl ester [Misoprostol],Number of animals which cause diarrhea/number of laboratory animals,[1]; 50 μg/kg,0/5
same,Number of animals which cause diarrhea/number of laboratory animals,[1]; 100 μg/kg,1/5
"CCCC[C@H](C)C[C@H](O)/C=C/[C@H]1[C@H](O)CC(=O)[C@@H]1CC(=O)CCCCC(=O)OC [Ornoprostil, 17S, 20-dimethyl-6-keto PGE1 methyl ester]",Antiulcer coefficient,[2]; [4],86.9
same,Incidence rate of ulcer (Number of Examples),[2]; [4],7/8
same,Antiulcer coefficient,[2]; [5],7.1
same,Incidence rate of ulcer (Number of Examples),[2]; [5],7/8
same,Antiulcer coefficient,[2]; [6],100.9
same,Incidence rate of ulcer (Number of Examples),[2]; [6],6/8
same,Antiulcer coefficient,[2]; [7],28.8
same,Incidence rate of ulcer (Number of Examples),[2]; [7],8/8
same,Antiulcer coefficient,[2]; [8],125.1
same,Incidence rate of ulcer (Number of Examples),[2]; [8],5/8
same,Antiulcer coefficient,[2]; [9],16.1
same,Incidence rate of ulcer (Number of Examples),[2]; [9],7/8
same,Antiulcer coefficient,[2]; [10],56.2
same,Incidence rate of ulcer (Number of Examples),[2]; [10],7/8
same,Antiulcer coefficient,[2]; [11],4.1
same,Incidence rate of ulcer (Number of Examples),[2]; [11],6/8
same,Antiulcer coefficient,[2]; [12],97.3
same,Incidence rate of ulcer (Number of Examples),[2]; [12],7/8
same,Dose which generates induced effect of diarrhea,[1],≥ 0.4 mg/kg
same,CRE (serum creatinine),[3]; GC (subcutis) + OU (3 μg) oral,1.38 mg/dL
same,UN (serum urea nitrogen),[3]; GC (subcutis) + OU (3 μg) oral,89.7 mg/dL
same,CRE (serum creatinine),[3]; [13],1.03 mg/dL
same,UN (serum urea nitrogen),[3]; [13],79.9 mg/dL
